Results from paper PMC10982501, “Synthesis and biological evaluation of novel benzothiazole derivatives as potential anticancer and antiinflammatory agents” (Frontiers in Chemistry, 2024).

Tests used:
[1] = Oil-water partition coefficient (log P) measurement; assay type: physicochemical; conditions: n-octanol/water, room temperature
Procedure: The partition coefficient between n-octanol and water (log Po/w) is the classical descriptor for Lipophilicity ([Daina et al., 2017]). The test methodology followed previously published protocols ([Wang et al., 2021]). At room temperature, two large Erlenmeyer flasks were taken and filled with n-octanol and water, respectively. The flasks were placed in a constant temperature shaker at 150 rpm for 24 h to saturate the solvents. The mixtures were then transferred to separating funnels under normal pressure to obtain water-saturated n-octanol and n-octanol-saturated water for subsequent use. The target compound (2 mg) was accurately weighed and placed in a 2 mL brown volumetric flask. Anhydrous methanol was added to ultrasonically dissolve the compound, and the mixture was diluted to volume and thoroughly shaken to prepare a 1 mg/mL stock solution. The stock solution was further diluted to obtain 1, 1.5, 2, 2.5, 5 and 10 μg/mL reference solutions for construction of a standard curve using a UV-visible spectrophotometer. An excess amount of the analyte was dissolved in water-saturated n-octanol, and the mixture was shaken at 150 rpm for 24 h at constant temperature to obtain a saturated solution. The saturated solution was allowed to stand, centrifuged, and 1 mL of the supernatant was transferred to a 4 mL centrifuge tube. N-octanol saturated water (1 mL) was added, and the mixture was shaken at 150 rpm for 24 h at constant temperature. After standing for 8 h, the mixture was centrifuged. Appropriate amounts of the n-octanol phase before and after equilibration were diluted with methanol, and concentrations were determined from the standard curve to obtain C0 and C1. The concentration in the n-octanol saturated aqueous phase, Cw, was calculated as Cw = C0 - C1. Thus, log Po/w = […].

A431 cells = experiment: MTT cell proliferation assay, A431; assay type: cell-based, human; conditions: for inhibition at 10 µM / IC50: Homo sapiens, A-431, 48 h; for inhibition at 10 µM: read-out: A431 cells inhibition rate; for inhibition at 10 µM / A431 cells inhibition rate: 10 μM; for A431 cells inhibition rate: 48 h; for IC50: read-out: IC50 (mean ± SD) A431
Procedure: (§1) Beas-2b, A431, A549 and H1299 cells were cultured in 96-well plates (5 × 10^3 cells/well) for 16 h, respectively. Subsequently, positive compound 4i and 25 newly synthesized compounds were added at a final concentration of 10 μM or gradient concentrations (0.01, 0.1, 0.5, 1, 5 and 10 μM), co-incubated with the cells for 48 h. MTT (M8180, Solarbio) solutions (5 mg/mL) were then added and incubated for 4 h in the dark. Then, formazan crystals were dissolved with DMSO (D8371, Solarbio), followed by shaking on a shaker (DRAGONLAB, China) for 10 min. Finally, absorbance at 490 nm wavelength for each well was measured with Microplate reader (Molecular Devices, United States) ([Tang et al., 2020]; [Lee et al., 2021]). The results are expressed as mean ± SD from three independent experiments. Cells inhibition rates or IC50 values were calculated using GraphPad Prism 9.5.0.

A549 cells = experiment: MTT cell proliferation assay, A549; assay type: cell-based, human; conditions: for inhibition at 10 µM / IC50: Homo sapiens, A549, 48 h; for inhibition at 10 µM: read-out: A549 cells inhibition rate; for inhibition at 10 µM / A549 cells inhibition rate: 10 μM; for A549 cells inhibition rate: 48 h; for IC50: read-out: IC50 (mean ± SD) A549
Procedure: as §1

H1299 cells = experiment: MTT cell proliferation assay, H1299; assay type: cell-based, human; conditions: for inhibition at 10 µM / IC50: Homo sapiens, NCI-H1299, 48 h; for inhibition at 10 µM: read-out: H1299 cells inhibition rate; for inhibition at 10 µM / H1299 cells inhibition rate: 10 μM; for H1299 cells inhibition rate: 48 h; for IC50: read-out: IC50 (mean ± SD) H1299
Procedure: as §1

Beas-2b cells = experiment: MTT cell proliferation and toxicity assay, Beas-2b; assay type: cell-based, human; conditions: 48 h; for inhibition at 10 µM: Homo sapiens, BEAS-2B, read-out: Beas-2b cells inhibition rate
Procedure: as §1

Row | logP [1] | IC50 (A431 cells) | IC50 (A549 cells) | IC50 (H1299 cells) | log P [1] | Structure (SMILES) | inhibition at 10 µM (A431 cells) | inhibition at 10 µM (A549 cells) | inhibition at 10 µM (H1299 cells) | inhibition at 10 µM (Beas-2b cells) | A431 cells inhibition rate (A431 cells) | A549 cells inhibition rate (A549 cells) | H1299 cells inhibition rate (H1299 cells) | Beas-2b cells inhibition rate (Beas-2b cells; 10 μM)
1 | 2.49 ± 0.39 | – | – | – | – | COc1ccc(C(=O)Nc2nc3ccc(F)cc3s2)cc1OC [C3, N-(6-fluorobenzo[d]thiazol-2-yl)-3,4-dimethoxybenzamide] | 12.3 ± 1.51% | 4.38 ± 0.35% | 18 ± 2.52% | 21.3 ± 1.62% | – | – | – | –
2 | – | – | – | – | 2.93 ± 0.11 | O=C(Nc1nc2ccc(F)cc2s1)c1c(Cl)cccc1Cl [C2, 2,6-dichloro-N-(6-fluorobenzo[d]thiazol-2-yl) benzamide] | – | – | – | – | 5.61 ± 0.26% | 0.27 ± 0.12% | 6.80 ± 0.22% | 12.82 ± 1.76%
3 | 2.56 ± 0.14 | – | – | – | – | O=C(Nc1nc2ccc(F)cc2s1)c1ccccc1 [C1, N-(6-fluorobenzo[d]thiazol-2-yl)benzamide] | 17.5 ± 1.35% | 19.3 ± 1.07% | 28.3 ± 1.25% | 16.3 ± 1.82% | – | – | – | –
4 | 3.06 ± 0.23 | – | – | – | – | O=C(Nc1nc2ccc(F)cc2s1)c1ccc([N+](=O)[O-])cc1 [C4, N-(6-fluorobenzo[d]thiazol-2-yl)-4-nitrobenzamide] | 43.1 ± 1.45% | 35.3 ± 1.82% | 45.2 ± 0.55% | 13.4 ± 1.65% | – | – | – | –
5 | 2.9 ± 0.32 | – | – | – | – | O=C(Nc1nc2ccc(Cl)cc2s1)c1ccccc1F [C7, N-(6-chlorobenzo[d]thiazol-2-yl)-2-fluorobenzamide] | 40.4 ± 1.33% | 44.6 ± 0.94% | 48.28 ± 0.37% | 21.4 ± 2.25% | – | – | – | –
6 | 3.05 ± 0.17 | 8.4 ± 1.06 µM | 8.17 ± 0.4 µM | 9.02 ± 0.37 µM | – | O=C(Nc1nc2ccc(Cl)cc2s1)c1ccccc1 [C6, N-(6-chlorobenzo[d]thiazol-2-yl)benzamide] | > 50% | > 50% | > 50% | 20.6 ± 0.52% | 57.73 ± 2.12% | 55.56 ± 2.78% | 59.72 ± 1.84% | –
7 | 2.87 ± 0.15 | 4.35 ± 0.9 µM | 9.82 ± 0.98 µM | 8.94 ± 1.21 µM | – | COc1ccc(C(=O)Nc2nc3ccc(Cl)cc3s2)cc1 [C5, N-(6-chlorobenzo[d]thiazol-2-yl)-4-methoxybenzamide] | > 50% | > 50% | > 50% | 17.2 ± 1.24% | 55.67 ± 2.34% | 56.33 ± 2.96% | 51.98 ± 0.24% | –
8 | 5.69 ± 0.25 | – | – | – | – | COc1cc(CN(Cc2cc(OC)cc(OC)c2)c2nc3ccc(Cl)cc3s2)cc(OC)c1 [D1, 6-chloro-N,N-bis(3,5-dimethoxybenzyl)benzo[d]thiazol-2-amine] | 38.7 ± 1.56% | 15.4 ± 3.46% | 32.7 ± 1.25% | 19.3 ± 1.31% | – | – | – | –

Further lines, the compound ahead of its results:

Row | Structure (SMILES) | logP [1] | IC50 (A431 cells) | IC50 (A549 cells) | IC50 (H1299 cells) | log P [1] | inhibition at 10 µM (A431 cells) | inhibition at 10 µM (A549 cells) | inhibition at 10 µM (H1299 cells) | inhibition at 10 µM (Beas-2b cells) | A431 cells inhibition rate (A431 cells) | A549 cells inhibition rate (A549 cells) | H1299 cells inhibition rate (H1299 cells) | Beas-2b cells inhibition rate (Beas-2b cells; 10 μM)
9 | Fc1cccc(CNc2nc3ccc(Cl)cc3s2)c1 [B5, 6-chloro-N-(3-fluorobenzyl)benzo[d]thiazol-2-amine] | 3.58 ± 0.11 | 10.8 ± 0.56 µM | 5.44 ± 1 µM | 9.26 ± 1.34 µM | – | > 50% | > 50% | > 50% | 20.6 ± 1.85% | 59.69 ± 3.62% | 58.64 ± 1.01% | 51.34 ± 3.03% | –
10 | O=[N+]([O-])c1ccccc1COc1ccccc1-c1nc2ccccc2s1 [A2, 2-(2-((2-nitrobenzyl)oxy)phenyl)benzo[d]thiazole] | 3.51 ± 0.19 | – | – | – | – | 35.8 ± 2.03% | 33.1 ± 2.34% | 42.4 ± 1.26% | 17.3 ± 3.26% | – | – | – | –
11 | Fc1ccc2nc(NCc3c(Cl)cccc3Cl)sc2c1 [B2, N-(2,6-dichlorobenzyl)-6-fluorobenzo[d]thiazol-2-amine] | 4.25 ± 0.16 | – | – | – | – | 27.5 ± 2.42% | 30.2 ± 2.13% | 31.3 ± 1.14% | 18.6 ± 1.67% | – | – | – | –
12 | N#Cc1ccc(COc2ccccc2-c2nc3ccccc3s2)cc1 [A8, 4-((2-(benzo[d]thiazol-2-yl)phenoxy)methyl)benzonitrile] | 3.44 ± 0.22 | – | – | – | – | 28.6 ± 1.24% | 24.4 ± 1.22% | 37.3 ± 2.3% | 14.2 ± 3.65% | – | – | – | –
13 | Fc1ccc2nc(NCCc3ccccc3)sc2c1 [B1, 6-fluoro-N-phenethylbenzo[d]thiazol-2-amine] | 3.47 ± 0.27 | – | – | – | – | 21.1 ± 2.03% | 18.3 ± 0.93% | 26.3 ± 0.91% | 23.1 ± 1.52% | – | – | – | –
14 | O=C1c2ccccc2C(=O)N1CCCOc1ccccc1-c1nc2ccccc2s1 [A3, 2-(3-(2-(benzo[d]thiazol-2-yl)phenoxy)propyl)isoindoline-1,3-dione] | 3.63 ± 0.16 | – | – | – | – | 34.2 ± 1.15% | 28.5 ± 2.21% | 30.9 ± 0.77% | 5.25 ± 0.39% | – | – | – | –
15 | Clc1ccc2nc(NCc3ccccc3)sc2c1 [B8, N-benzyl-6-chlorobenzo[d]thiazol-2-amine] | 3.56 ± 0.16 | 5.36 ± 1 µM | 6.25 ± 0.99 µM | 6.69 ± 0.54 µM | – | > 50% | > 50% | > 50% | 18.1 ± 3.22% | 57.43 ± 3.64% | 65.75 ± 0.96% | 55.22 ± 2.49% | –
16 | Cc1ccc(COc2ccccc2-c2nc3ccccc3s2)cc1 [A6, 2-(2-((4-methylbenzyl)oxy)phenyl)benzo[d]thiazole] | 4.72 ± 0.28 | – | – | – | – | 27.7 ± 1.62% | 20.7 ± 2.31% | 33.9 ± 0.68% | 15.1 ± 3.28% | – | – | – | –
17 | O=[N+]([O-])c1ccc(COc2ccccc2-c2nc3ccccc3s2)cc1 [A4, 2-(2-((4-nitrobenzyl)oxy)phenyl)benzo[d]thiazole] | 3.74 ± 0.35 | – | – | – | – | 35.8 ± 1.02% | 33.3 ± 1.36% | 39.4 ± 1.2% | 10.3 ± 0.64% | – | – | – | –
18 | O=[N+]([O-])c1ccc(CNc2nc3ccc(F)cc3s2)cc1 [B4, 6-fluoro-N-(4-nitrobenzyl)benzo[d]thiazol-2-amine] | 2.67 ± 0.25 | – | – | – | – | 24.3 ± 1.87% | 19.6 ± 1.32% | 25 ± 1.62% | 21.4 ± 2.21% | – | – | – | –
19 | c1ccc(COc2ccccc2-c2nc3ccccc3s2)cc1 [A7, 2-(2-(benzyloxy)phenyl)benzo[d]thiazole] | 3.95 ± 0.15 | – | – | – | – | 15.3 ± 2.21% | 12.2 ± 3.42% | 26.5 ± 1.11% | 11.4 ± 2.65% | – | – | – | –
20 | Clc1cccc(COc2ccccc2-c2nc3ccccc3s2)c1 [A5, 2-(2-((3-chlorobenzyl)oxy)phenyl)benzo[d]thiazol] | 4.51 ± 0.24 | – | – | – | – | 45.7 ± 0.87% | 47.6 ± 1.24% | 35.3 ± 2.24% | 18.2 ± 2.23% | – | – | – | –
21 | COc1cc(CNc2nc3ccc(Cl)cc3s2)cc(OC)c1 [B6, 6-chloro-N-(3,5-dimethoxybenzyl)benzo[d]thiazol-2-amine] | 3.36 ± 0.18 | – | – | – | – | 43.4 ± 1.61% | 35.2 ± 2.86% | 32.8 ± 0.74% | 20.6 ± 1.32% | – | – | – | –
22 | COc1ccc(CNc2nc3ccc(F)cc3s2)cc1OC [B3, N-(3,4-dimethoxybenzyl)-6-fluorobenzo[d]thiazol-2-amine] | 2.56 ± 0.12 | – | – | – | – | 32.4 ± 2.92% | 22.4 ± 1.34% | 44.6 ± 1.75% | 25.4 ± 2.01% | – | – | – | –
